Among the test systems are HCC-2998 colon; HCT-15 colon; HL-60(TB) leukemia; HOP-62 NSCLC; K-562 leukemia; NCI-H460 lung; SK-MEL-28 melanoma; SK-MEL-5 melanoma; NCI/ADR-RES ovarian; BT-549 breast.
What all share (assay): NCI anticancer screen, dose series, 48 h

Molecules are shown by their SMILES.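 Five concentrations, 48 hours, 96-well plates. The concentration for 50% growth inhibition is given as GI50. TGI: total growth inhibition.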

The record followed here is PubChem BioAssay (NCI).

As for `O=C1Nc2cc(F)ccc2C1=O`, the TGI with HCC-2998 colon, in the assay on HCT-15 colon, in the assay on HL-60(TB) leukemia, in the assay on HOP-62 NSCLC, in the assay with K-562 leukemia and in the assay with NCI-H460 lung was above 100 µM throughout. The TGI in the assay with SK-MEL-28 melanoma and in the assay with SK-MEL-5 melanoma was above 100 µM throughout.
Regarding `O/N=C/c1ccc(O)c(O)c1`, the TGI in the assay on HCC-2998 colon was above 100 µM; in the assay with HCT-15 colon it was above 100 µM; with HL-60(TB) leukemia, 58.8 µM; in the assay with HOP-62 NSCLC, above 100 µM; with K-562 leukemia, above 100 µM; in the assay with NCI-H460 lung it was above 100 µM. Besides, the TGI in the assay with SK-MEL-28 melanoma and in the assay on SK-MEL-5 melanoma was above 100 µM in each case.
Turning to `COc1cc(/C=N/N=C(\N)NO)c([N+](=O)[O-])cc1OC`, the TGI with HCC-2998 colon was above 100 µM; in the assay on HCT-15 colon, above 100 µM; in the assay on HL-60(TB) leukemia it was 56 µM; in the assay with HOP-62 NSCLC, above 100 µM; in the assay on K-562 leukemia it was above 100 µM; in the assay on NCI-H460 lung, above 100 µM. The values for the TGI in the assay with SK-MEL-28 melanoma and in the assay on SK-MEL-5 melanoma were above 100 µM and 50.9 µM, respectively.
For `O=C1N=C(Nc2nc(-c3csc(NC4=NC(=O)/C(=C\c5ccccc5)S4)n3)cs2)S/C1=C/c1ccccc1`, the GI50 with HCC-2998 colon was 8.2 µM; with HCT-15 colon it was 11.2 µM; in the assay with HL-60(TB) leukemia, 14.3 µM; with HOP-62 NSCLC it was 7.97 µM; in the assay with K-562 leukemia it was 6.28 µM; in the assay with NCI-H460 lung, 12.8 µM. Also, the GI50 in the assay with NCI/ADR-RES ovarian was 15.9 µM; in the assay with SK-MEL-28 melanoma, above 50 µM; with SK-MEL-5 melanoma, 5.87 µM. The TGI with HCC-2998 colon is 45.5 µM; with HCT-15 colon, above 50 µM; in the assay on HL-60(TB) leukemia it was 36.8 µM; in the assay with HOP-62 NSCLC, 46.3 µM; with K-562 leukemia, 48.9 µM; in the assay on NCI-H460 lung, above 50 µM. For the same compound, the TGI in the assay with NCI/ADR-RES ovarian is above 50 µM; in the assay on SK-MEL-28 melanoma, above 50 µM; in the assay on SK-MEL-5 melanoma, 33.4 µM.
As for `Nc1ccc(/C=C/c2ccc3cccnc3c2)cc1`, the TGI in the assay with HCC-2998 colon, in the assay on HCT-15 colon, with HL-60(TB) leukemia, in the assay with HOP-62 NSCLC, with K-562 leukemia and with NCI-H460 lung was above 100 µM each time. The TGI in the assay with NCI/ADR-RES ovarian, in the assay with SK-MEL-28 melanoma and in the assay with SK-MEL-5 melanoma was above 100 µM in each case.
As for `COc1ccc2c(c1)CCc1c-2n[nH]c1-c1[nH]nc2c1CCc1cc(OC)ccc1-2`, the TGI in the assay on HCC-2998 colon was above 100 µM; with HCT-15 colon it was above 100 µM; with HL-60(TB) leukemia, above 100 µM; in the assay with HOP-62 NSCLC it was 56.3 µM; in the assay with K-562 leukemia, above 100 µM; in the assay on NCI-H460 lung, above 100 µM. For the same compound, the TGI in the assay with SK-MEL-28 melanoma and with SK-MEL-5 melanoma was above 100 µM throughout.
Consider `Cc1cccc2c1[nH]c(=O)c1c3ccccc3cn21`, for which the GI50 in the assay on BT-549 breast was 12 µM; with HCC-2998 colon, 4.6 µM; with HCT-15 colon, 5.25 µM; in the assay on HOP-62 NSCLC, 3.58 µM; with NCI-H460 lung it was 1.89 µM; in the assay with NCI/ADR-RES ovarian, 12.1 µM. For the same compound, the GI50 in the assay with SK-MEL-28 melanoma was 6.86 µM; in the assay on SK-MEL-5 melanoma, 11.7 µM. The TGI in the assay on BT-549 breast was 59.2 µM; with HCC-2998 colon, 16.3 µM; in the assay on HCT-15 colon, 31.7 µM; in the assay on HOP-62 NSCLC, 15.2 µM; in the assay on NCI/ADR-RES ovarian it was 34.8 µM; in the assay on SK-MEL-28 melanoma, above 100 µM. The TGI in the assay on SK-MEL-5 melanoma came to 23.9 µM.
For `CCCCN(CCCC)CC(C(C)=O)C(c1ccccc1)c1c(O)c2ccccc2oc1=O` (stereo not drawn), the TGI in the assay on HCC-2998 colon, in the assay on HCT-15 colon, with HL-60(TB) leukemia, in the assay on HOP-62 NSCLC, in the assay on K-562 leukemia and in the assay on NCI-H460 lung was above 100 µM throughout. The TGI in the assay on SK-MEL-28 melanoma and in the assay with SK-MEL-5 melanoma was above 100 µM throughout.
For the compound `COc1cc(/C=C2\CCCC3=C2N=C2SC(C)=NN2C3c2cc(OC)c(OC)c(OC)c2)cc(OC)c1OC` (stereo not drawn), the GI50 in the assay with BT-549 breast is above 100 µM; in the assay with HOP-62 NSCLC, above 100 µM; in the assay with K-562 leukemia it was 0.42 µM. In addition, the TGI with BT-549 breast, with HOP-62 NSCLC and with K-562 leukemia was above 100 µM in each case.
Consider `COC(=O)CC[C@]12C[C@]13CC[C@]1(C)C4C(C)C[C@]5(CC(C)C(=O)O5)OC4CC1(C)C3CCC2C(C)(C)O` (stereo partly drawn), for which the TGI is above 100 µM in the assay on HCC-2998 colon; above 100 µM with HCT-15 colon; 66.1 µM with HL-60(TB) leukemia; above 100 µM in the assay with HOP-62 NSCLC; above 100 µM with K-562 leukemia; above 100 µM in the assay with NCI-H460 lung. The TGI in the assay on SK-MEL-28 melanoma and with SK-MEL-5 melanoma was above 100 µM throughout.
Turning to `CC(=O)[O-].N.N.N.N.[Co+3].[O-][Cl+3]([O-])([O-])[O-].[OH3+]`, the GI50 with HCC-2998 colon, with HCT-15 colon, in the assay with HL-60(TB) leukemia, in the assay with HOP-62 NSCLC, in the assay with K-562 leukemia and in the assay with NCI-H460 lung was above 100 µM throughout. In addition, the GI50 in the assay on SK-MEL-28 melanoma and in the assay with SK-MEL-5 melanoma was above 100 µM each time. The TGI with HCC-2998 colon, in the assay with HCT-15 colon, in the assay with HL-60(TB) leukemia, in the assay on HOP-62 NSCLC, in the assay on K-562 leukemia and in the assay on NCI-H460 lung was above 100 µM each time. The TGI in the assay on SK-MEL-28 melanoma and in the assay on SK-MEL-5 melanoma was above 100 µM throughout.
As for `NC(=O)c1ccc(Cl)c([N+](=O)[O-])c1`, the TGI in the assay with HCC-2998 colon, in the assay on HCT-15 colon, in the assay with HL-60(TB) leukemia, with HOP-62 NSCLC, with K-562 leukemia and in the assay with NCI-H460 lung was above 100 µM throughout. Moreover, the TGI in the assay with SK-MEL-28 melanoma and with SK-MEL-5 melanoma was above 100 µM in each case.
Regarding `N#Cc1cc(S(=O)(=O)Nc2nc3ccccc3o2)c(SCc2ccccc2)cc1Cl`, the GI50 with BT-549 breast is 20.5 µM; with HCC-2998 colon it was 19 µM; in the assay with HCT-15 colon, 24.6 µM; in the assay with HOP-62 NSCLC, 21.4 µM; in the assay with K-562 leukemia, 38.8 µM; in the assay with NCI-H460 lung, 21.5 µM. Further, the values for the GI50 with NCI/ADR-RES ovarian, in the assay on SK-MEL-28 melanoma and in the assay with SK-MEL-5 melanoma were 29.6 µM, 18.9 µM and 17 µM, respectively. Moreover, the TGI in the assay with BT-549 breast is 41.3 µM; in the assay with HCC-2998 colon, 34.3 µM; with HCT-15 colon, 60.1 µM; in the assay with HOP-62 NSCLC, 43.6 µM; with K-562 leukemia, above 100 µM; with NCI-H460 lung, 56.1 µM. The TGI with NCI/ADR-RES ovarian is 75.8 µM; in the assay on SK-MEL-28 melanoma, 40.4 µM; in the assay on SK-MEL-5 melanoma, 31.9 µM.
